Active and inactive are the calls of the source. No cut-off for these calls is given here.
Legend:
[1] = system: Human immunodeficiency virus 1; assay: Reversal of HIV-1 latency in CD4+ T-lymphoid J-Lat cells contains HIV-1 long terminal repeats (LTR)-Tat-GFP assessed as reactivation measured after 48 hrs by flow cytometry; assay type: functional, organism-based; conditions: Human immunodeficiency virus 1, J-Lat 10.6, 48 h
[2] = Cytotoxicity against human non-infected J-Lat A10.6 cells assessed as cell death by CCK8 assay; assay type: toxicity, cell-based, J-Lat 10.6
PBMC [3] = assay: Immune hyper-activation in human PBMC cells assessed as CD25 expression at 10 uM measured after 48 hrs by flow cytometry; assay type: toxicity, cell-based
PBMC [4] = assay: Immune hyper-activation in human PBMC cells assessed as CD69 expression at 10 uM measured after 48 hrs by flow cytometry; assay type: toxicity, cell-based
PBMC [5] = assay: Immune hyper-activation in human PBMC cells assessed as HLA-DR expression at 10 uM measured after 48 hrs by flow cytometry; assay type: toxicity, cell-based
[6] = target: Bromodomain-containing protein 4 (Homo sapiens) (UniProt O60885); assay: Inhibition of BRD4 phosphorylation in human J-Lat A10.6 cells contains HIV-1 long terminal repeats (LTR)-Tat-GFP at 2 to 50 uM measured after 24 hrs by Western blotting analysis; assay type: cell-based; conditions: J-Lat 10.6, dose 2-50 µM
[7] = target: Bromodomain-containing protein 4 (Homo sapiens) (UniProt O60885); assay: Inhibition of human BRD4 in J-lat 10.6 cells contains HIV-1 long terminal repeats (LTR)-Tat-GFP assessed as cyclin T1 expression at 2 to 50 uM measured after 24 hrs by Western blot analysis; assay type: cell-based; conditions: dose 2-50 µM
[8] = target: Bromodomain-containing protein 4 (Homo sapiens) (UniProt O60885); assay: Inhibition of human BRD4 in J-lat 10.6 cells contains HIV-1 long terminal repeats (LTR)-Tat-GFP assessed as CDK9 expression at 2 to 50 uM measured after 24 hrs by Western blot analysis; assay type: cell-based; conditions: dose 2-50 µM
[9] = target: Bromodomain-containing protein 4 (Homo sapiens) (UniProt O60885); assay: Inhibition of human BRD4 in J-lat 10.6 cells contains HIV-1 long terminal repeats (LTR)-Tat-GFP assessed as phosphorylated CDK9 expression at 2 to 50 uM measured after 24 hrs by Western blot analysis; assay type: cell-based; conditions: dose 2-50 µM
[10] = target: Bromodomain-containing protein 4 (Homo sapiens) (UniProt O60885); assay: Inhibition of human BRD4 recruitment in J-Lat A10.6 cells contains HIV-1 long terminal repeats (LTR) assessed as reduction of BRD4 and HIV-1 LTR interaction at 10 uM incubated for 6 hrs by CHIP assay; assay type: cell-based; conditions: J-Lat 10.6
[11] = target: Bromodomain-containing protein 4 (Homo sapiens) (UniProt O60885); assay: Inhibition of BRD4 in human J-Lat 10.6 cells contains HIV-1 long terminal repeats (LTR)-Tat-GFP assessed as increased CDK9 enrichment in LTR at 10 uM incubated for 6 hrs by ChiP assay; assay type: cell-based
[12] = target: Bromodomain-containing protein 4 (Homo sapiens) (UniProt O60885); assay: Inhibition of BRD4 in human J-Lat 10.6 cells contains HIV-1 long terminal repeats (LTR)-Tat-GFP assessed as increased RNA pol II enrichment in LTR at 10 uM incubated for 6 hrs by ChiP assay; assay type: cell-based
[13] = system: Human immunodeficiency virus 1; assay: Synergistic reversal of HIV-1 latency in human J-Lat 10.6 cells contains HIV-1 long terminal repeats (LTR)-Tat-GFP assessed as increase in GFP-positive cells by measuring combination index at 10 uM incubated for 48 hrs in presence of Prostratin by flow cytometry; assay type: functional
[14] = Synergistic reversal of HIV-1 latency in human J-Lat 10.6 cells contains HIV-1 long terminal repeats (LTR)-Tat-GFP assessed as increase in GFP-positive cells by measuring combination index at 10 uM incubated for 48 hrs in presence of N1-hydroxy-N8-phenyloctanediamide by flow cytometry; assay type: functional, Human immunodeficiency virus 1
J-Lat 10.6 [15] = assay: Reversal of HIV-1 latency in human J-Lat10.6 cells contains HIV-1 long terminal repeats (LTR)-Tat-GFP assessed as reactivation measured at 10 uM after 48 hrs in presence of raltegravir by flow cytometry; assay type: functional, cell-based; conditions: Human immunodeficiency virus 1
J-Lat 10.6 [16] = assay: Reversal of HIV-1 latency in human J-Lat10.6 cells contains HIV-1 long terminal repeats (LTR)-Tat-GFP assessed as reactivation measured at 10 uM after 48 hrs in presence of Efavirenz by flow cytometry; assay type: functional, cell-based; conditions: Human immunodeficiency virus 1
J-Lat 10.6 [17] = assay: Reversal of HIV-1 latency in human J-Lat10.6 cells contains HIV-1 long terminal repeats (LTR)-Tat-GFP assessed as reactivation measured at 10 uM after 48 hrs in presence of darunavir by flow cytometry; assay type: functional, cell-based; conditions: Human immunodeficiency virus 1
[18] = system: Human immunodeficiency virus 1; assay: Reversal of HIV-1 latency in ACH-2 cell line contains complete HIV-1 provirus assessed as reactivation by measuring HIV-1 p24 antigen expression 5 uM measured after 48 hrs by ELISA; assay type: functional, organism-based
PBMC [19] = assay: Cytotoxicity against human PBMC cells assessed as cell viability measured after 48 hrs by MTT assay; assay type: toxicity, cell-based
[20] = Cytotoxicity against human J-Lat A10.6 cells infected with HIV-1 assessed as cell viability measured after 48 hrs by MTT assay; assay type: toxicity, cell-based; conditions: j-lat 10.6, 48 h
ACH-2 cell line = assay: Cytotoxicity against human ACH-2 cell line cells infected with HIV-1 assessed as cell viability measured after 48 hrs by MTT assay; assay type: toxicity, cell-based; conditions: ach-2, 48 h
[21] = Cytotoxicity against human OM10.1 cells infected with HIV-1 assessed as cell viability measured after 48 hrs by MTT assay; assay type: toxicity, cell-based; conditions: om10.1, 48 h
[22] = target: Bromodomain-containing protein 4 (Homo sapiens) (UniProt O60885); assay: Inhibition of BRD4 BD1 domain (unknown origin) at 1 uM by HTRF assay
[23] = target: Bromodomain-containing protein 4 (Homo sapiens) (UniProt O60885); assay: Inhibition of BRD4 BD2 domain (unknown origin) at 1 uM by HTRF assay
[24] = Effect on CXCR4 expression in human PBMC cells at 10 uM incubated for 48 hrs by flow cytometry; assay type: toxicity, cell-based
[25] = Effect on CXCR5 expression in human PBMC cells at 10 uM incubated for 48 hrs by flow cytometry; assay type: toxicity, cell-based
PBMC [26] = assay: Effect on CXCR4 expression in human PBMC cells at 1 uM incubated for 48 hrs by flow cytometry; assay type: functional, cell-based
PBMC [27] = assay: Effect on CXCR5 expression in human PBMC cells at 1 uM incubated for 48 hrs by flow cytometry; assay type: functional, cell-based

Cc1nnc2ccc(-c3cc(NS(=O)(=O)c4ccc(F)cc4)ccc3Oc3ccc(F)cc3F)cn12
EC50 [1]: 1.6 µM
CC50 [2]: > 50 µM
Activity (PBMC [3]): Non-Toxic
Activity (PBMC [4]): Non-Toxic
Activity (PBMC [5]): Non-Toxic
inhibition [6]: Active
inhibition [7]: inactive
inhibition [8]: inactive
inhibition [9]: Active
inhibition [10]: Active
inhibition [11]: Active
inhibition [12]: Active
CI [13]: 0.1
CI [14]: 0.1
Activity (J-Lat 10.6 [15]): Active
Activity (J-Lat 10.6 [16]): Active
Activity (J-Lat 10.6 [17]): Active
Activity [18]: Active
Activity (PBMC [19]): Non-Toxic
Activity [20]: Non-Toxic
Activity (ACH-2 cell line): Non-Toxic
Activity [21]: Non-Toxic
inhibition [22]: Active
inhibition [23]: Active
Activity [24]: Not Active
Activity [25]: Not Active
Activity (PBMC [26]): inactive
Activity (PBMC [27]): inactive
